These are literature values, as cited in patent US12295916B2, “Process for making aqueous therapeutic particle having stable exterior water clustering with nanosized thickness” (priority 2019, dated 2025).

Molecules are shown by their SMILES. Where only a bound is given, the exact number is not on record here.

For this data set the following is noted: given by injection.

With `CNC1(c2ccccc2Cl)CCCCC1=O` (centres unmarked) [Ketamine], the duration of effects is at most 25 min and the “time to begin of effects” value was “five”.
